From publication PMC2677733 (International Journal of Biological Sciences, 2009)

Molecular target: T1, OlatOR1/OlatOR2 (Ostrinia latipennis, UniProt C1PHB5)
T1 sequence (C1PHB5 1-424): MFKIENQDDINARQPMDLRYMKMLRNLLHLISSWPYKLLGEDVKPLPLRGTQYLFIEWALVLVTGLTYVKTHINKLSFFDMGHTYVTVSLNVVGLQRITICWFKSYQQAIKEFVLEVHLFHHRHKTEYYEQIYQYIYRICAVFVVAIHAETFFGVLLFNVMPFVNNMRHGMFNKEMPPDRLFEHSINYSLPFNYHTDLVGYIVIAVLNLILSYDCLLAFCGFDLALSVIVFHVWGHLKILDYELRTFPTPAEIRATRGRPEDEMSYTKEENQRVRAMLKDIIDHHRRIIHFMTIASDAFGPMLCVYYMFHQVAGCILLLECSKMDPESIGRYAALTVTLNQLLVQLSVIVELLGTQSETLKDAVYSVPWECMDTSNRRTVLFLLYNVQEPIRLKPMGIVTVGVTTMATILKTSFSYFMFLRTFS
T1 sequence (C1PHA8 1-473 partner): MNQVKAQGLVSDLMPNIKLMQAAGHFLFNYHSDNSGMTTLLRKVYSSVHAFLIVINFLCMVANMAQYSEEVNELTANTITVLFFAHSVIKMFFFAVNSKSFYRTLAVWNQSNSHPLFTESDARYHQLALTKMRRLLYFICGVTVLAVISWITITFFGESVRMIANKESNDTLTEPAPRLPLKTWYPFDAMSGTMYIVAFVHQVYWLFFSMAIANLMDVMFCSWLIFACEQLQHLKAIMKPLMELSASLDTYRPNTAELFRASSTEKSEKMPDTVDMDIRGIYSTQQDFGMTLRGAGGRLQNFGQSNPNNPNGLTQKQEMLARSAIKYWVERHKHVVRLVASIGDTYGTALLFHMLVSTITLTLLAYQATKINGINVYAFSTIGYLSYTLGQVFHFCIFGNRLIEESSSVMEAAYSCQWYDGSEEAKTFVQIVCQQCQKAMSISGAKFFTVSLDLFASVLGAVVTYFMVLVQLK
Assay: two-electrode voltage clamp, Xenopus oocytes
Format: cell-based
Details: agonist, inward current; -80 mV; pH 7.6; 10 µM

SMILES	two-electrode voltage clamp, Xenopus oocytes
CCCC/C=C\CCCCCCCCCCOC(C)=O [Z11-16:OAc]	OlatOR1/OlatOR2 cells were found to show exactly the same response pattern as OscaOR1/OscaOR2 cells
CC/C=C/CCCCCCCCCCO [E11-14:OH, (E)-11-tetradecenol]	OscaOR1 and OlatOR1, strongly responded to E11-14:OH
